Experimental data as given in patent publication US11440905B2, “Biheterocyclic compound” (SUMITOMO PHARMA CO., LTD., priority 2016, dated 2022).

Legend:
[1] = molecular target: T1, mouse semaphorin 3A (Sema3A) (Mus musculus, UniProt O08665); assay: Inhibitory activity for the collapse activity caused by Sema3A (growth cone collapse assay, Test 1); format: cell-based; conditions: chick embryo dorsal root ganglion, 3 units/mL mouse Sema3A, smaller value = more potent inhibition, read-out: residual ratio (%) of Sema3A activity (collapse assay)
T1 sequence (O08665 21-772): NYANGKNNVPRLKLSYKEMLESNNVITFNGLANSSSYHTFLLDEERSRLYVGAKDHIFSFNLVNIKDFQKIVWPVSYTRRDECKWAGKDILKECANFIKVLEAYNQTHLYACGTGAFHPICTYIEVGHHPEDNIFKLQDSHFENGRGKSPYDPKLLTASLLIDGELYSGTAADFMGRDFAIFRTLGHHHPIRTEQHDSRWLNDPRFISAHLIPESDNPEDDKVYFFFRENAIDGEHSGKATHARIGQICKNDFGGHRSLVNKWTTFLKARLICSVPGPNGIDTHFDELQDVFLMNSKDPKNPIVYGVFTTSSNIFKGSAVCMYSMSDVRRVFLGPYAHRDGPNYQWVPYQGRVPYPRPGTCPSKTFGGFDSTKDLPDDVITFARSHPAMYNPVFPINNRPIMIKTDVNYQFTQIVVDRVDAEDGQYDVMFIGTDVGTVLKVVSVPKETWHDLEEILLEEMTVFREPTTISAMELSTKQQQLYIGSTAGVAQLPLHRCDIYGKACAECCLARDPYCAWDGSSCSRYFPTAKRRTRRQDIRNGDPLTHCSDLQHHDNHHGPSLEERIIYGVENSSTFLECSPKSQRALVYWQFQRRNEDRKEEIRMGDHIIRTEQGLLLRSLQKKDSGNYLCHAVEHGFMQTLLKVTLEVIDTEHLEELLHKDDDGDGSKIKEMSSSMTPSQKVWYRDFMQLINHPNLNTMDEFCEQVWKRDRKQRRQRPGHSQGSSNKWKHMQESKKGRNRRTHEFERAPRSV
Method: Inhibitory Activity for the Collapse Activity Caused by Sema3A
96 well-plate (SUMITOMO BAKELITE CO., LTD.) which was beforehand coated with polylysine was further coated with laminin (10 μL laminin, at room temperature, for 1 hour). To each well was added 100 μL of a medium (F12 medium containing 10% fetal bovine serum, 20 ng/mL NGF, 100 unit/mL penicillin, and 100 μg/mL streptomycin). Dorsal root ganglion harvested from 7-8 day-old chick embryo was inoculated thereto, and the culture medium was cultivated under the condition of 5% CO2 and 37° C. for 16-20 hours. And then, each test compound in various concentrations was added to the medium, each test medium was cultivated for 30 minutes, 3 units/mL mouse semaphorin 3A (Sema3A) was added to each medium, and then each test medium was cultivated for more 30 minutes. Then, glutaraldehyde was added to the medium, in which the final concentration of glutaraldehyde was 1%. The medium was left to stand at room temperature for 15 minutes to make the tissue fragment fixed, and the ratio of the retracted growth cone was measured under a microscope.

[2] = system: dry eye-model rat (exorbital lacrimal gland excised); assay: Drug evaluation for corneal disorder in dry eye rat model (Test 5); format: in vivo; conditions: 0.01% to 1% ophthalmic solutions, 1 μL per shot, twice per day, 4 weeks; ** denotes p<0.01
Method: Drug Evaluation for Corneal Disorder in Dry Eye Rat Model
For the corneal disorder in the model rat whose exorbital lacrimal gland is excised, the drug effect was evaluated about hyaluronic acid (HA) which is an existing drug, and the present compound.
Male SD rat was anesthetized with inhalational isoflurane, and the exorbital lacrimal gland thereof was excised to prepare a dry eye-model rat (the conditions to prepare the dry eye-model rat can be changed as necessary, for example, by combining the excision of exorbital lacrimal gland with the medication of streptozotocin or the like). Three weeks after the operation, each vehicle for eye drop (typically phosphate-buffered saline (PBS)), and 0.01%, 0.1%, and 1% the ophthalmic solutions of the present compound (Example 19) were administered to the rat in an awareness at 1 μL per shot, twice per day, for 4 weeks.
The scoring of disorder extent in the site of corneal disorder was evaluated with 4 grades of the evaluation criteria of 0-3 according to Test 3.
The statistical significance for the drug effect was evaluated by nonparametric Tukey's multiple comparison test, in which the result of each test group was compared with that of the vehicle-administration group (PBS) in which the rat's exorbital lacrimal gland is excised.

- remaining activity at 1 µM ([1]; 1 μM test compound): 4.2%
- remaining activity at 3 µM ([1]; 3 μM test compound): 0%
SMILES: Cn1cc(-c2coc3cc(O)c(O)c(C(=O)OCC(=O)N[C@@H](CCC(=O)O)C(=O)O)c3c2=O)c(=O)c2cc(O)c(O)cc21 [Example 19, N-[({[3-(6,7-Dihydroxy-1-methyl-4-oxo-1,4-dihydroquinolin-3-yl)-6,7-dihydroxy-4-oxo-4H-chromen-5-yl]carbonyl}oxy)acetyl]-L-glutamic acid]
- improvement for corneal disorder (fluorescein staining score 0-3) vs vehicle-administration group (PBS) [2]: marked improvement
